This assay relates to drug-resistant Mycobacterium tuberculosis. Conditions: 10 micrograms per ml; seven days; strain resistant to PAS, streptomycin and isoniazid.

Two molecules from US20100273701A1, “USE OF SALUSIN BETA ALONE OR IN COMBINATION WITH OCTREOTIDE AS A THERAPEUTIC AGENT” (priority 2007, published 2010) can be followed below.

With `C[C@@H](O)[C@@H]1NC(=O)[C@H](CCCCN)NC(=O)[C@@H](Cc2c[nH]c3ccccc23)NC(=O)[C@H](Cc2ccccc2)NC(=O)[C@@H](NC(=O)[C@H](N)Cc2ccccc2)CSSC[C@@H](C(=O)N[C@H](CO)[C@@H](C)O)NC1=O` [Peptide 2, D-Phe-Cys-Phe-D-Trp-Lys-Thr-Cys-L-threoninol], the “inhibition of the growth of Mycobacterium tuberculosis” value is 100%.

Take “Ala-lle-Phe-Ile-Phe-Ile-Arg-Trp-Leu-Leu-Lys-Leu-Gly-His-His-Gly-Arg-Ala-Pro-Pro-OH [Peptide 1]”: the “inhibition of the growth of Mycobacterium tuberculosis” value amounted to 100%.
